Measured values from PMC12592400, “A unique inhibitor conformation selectively targets the DNA polymerase PolC of Gram-positive priority pathogens” (Nature Communications, 2025).
Values after ≈ are worked out from the molar mass of the structure shown. Where two headings read alike, the source gives them in different places.

Tests used:
[1] = tested on: Enterococcus faecalis ATCC 29212; assay: Broth microdilution MIC; type: cell-based
Procedure: (§1) Minimal inhibitory concentrations (MICs) were determined by WuXi Apptec, on behalf of Acurx Pharmaceuticals, Inc., for the Gram-positive pathogens: Enterococcus faecium ATCC 700221 (VRE; vancomycin-resistant), Enterococcus faecalis ATCC 29212, Staphylococcus aureus NRS384 (MRSA; methicillin-resistant), Staphylococcus aureus ATCC 29213 (MSSA; methicillin-sensitive), and Streptococcus pneumoniae ATCC 49619 (PRSP; penicillin-resistant). As a control, Gram-negative Escherichia coli ATCC 25922 was included. All strains were obtained from ATCC with the exception of Staphylococcus aureus NRS384, which was obtained from NARSA (Network on Antimicrobial Resistance in Staphylococcus aureus, now part of BEI resources). Bacteria were cultured according to the manuals provided by the suppliers and stored in 25% glycerol (final concentration) at –80 °C.
(§2) Bacterial strains were streaked out onto MHA plates (Mueller-Hinton II Agar; BD-211438) and incubated at 37 °C for 20 h except for S. pneumoniae and Enterococci, which were streaked on blood agar (Huankai-24070). S. pneumoniae was incubated in 5% CO2. Single colonies were suspended in 5 mL sterile saline, the turbidity was adjusted to 0.20 (Siemens MicroScan turbidity metre; equal to ~1.0 × 10^8 colony forming units (CFU)/mL) and then diluted 200x in MHIIB (Mueller-Hinton II […] (BD-211438)) medium. The MHIIB media was supplemented with 5% Lysed Horse Blood (Shanghai YuanMu Biological Technology Co. Ltd. YM-U161) for S. pneumoniae.
(§3) ACX compounds were dissolved in pure DMSO (Sigma 276855) to a concentration of 20 mg/mL. From this, twofold serial dilutions (from […]) in DMSO were transferred to a 96-well source-plate (Axygen-wipp02280) with pure DMSO as a control. 2 µL from the source plate was then transferred into 96-well culture plates (Costar 3788) and inoculated with 198 µL of the bacterial suspension so that each well contained ~5.0 × 10^5 CFU/mL bacteria, 1% DMSO and serially diluted compounds at 0 µg/mL and 0.0625-64 µg/mL in 100 µl medium. For NRS384, which was tested in a separate experiment, 99 µL of bacterial suspension was added to 1 µL of compound. The plates were incubated in ambient atmosphere at 37 °C for 20 h.

[2] = tested on: Enterococcus faecium ATCC 700221 (VRE; vancomycin-resistant); assay: Broth microdilution MIC; type: cell-based; conditions: for MIC: Enterococcus faecium, read-out: Measured MIC; for Measured MIC: Table 2, polC WT, strain ATCC 700221
Procedure: as §1, §2, §3

[3] = tested on: Escherichia coli ATCC 25922; assay: Broth microdilution MIC; type: cell-based
Procedure: as §1, §2, §3

[4] = tested on: Staphylococcus aureus ATCC 29213 (MSSA; methicillin-sensitive); assay: Broth microdilution MIC; type: cell-based; conditions: read-out: Measured MIC
Procedure: as §1, §2, §3

[5] = tested on: Staphylococcus aureus NRS384 (MRSA; methicillin-resistant); assay: Broth microdilution MIC; type: cell-based; conditions: read-out: Measured MIC
Procedure: as §1, §2, §3

[6] = tested on: Streptococcus pneumoniae ATCC 49619 (PRSP; penicillin-resistant); assay: Broth microdilution MIC; type: cell-based; conditions: read-out: Measured MIC
Procedure: as §1, §2, §3

[7] = tested on: E. faecium strains with polC mutations (A1281T, F1276I, F1276L, F1276S); assay: Cross-resistance MIC of reduced susceptible E. faecium strains; type: cell-based, Enterococcus faecium; conditions: for raise of MIC by A1281T: E. faecium polC A1281T versus WT (Table 2); for MIC: Enterococcus faecium
Procedure: Strains with reduced susceptibility to ACX compounds were generated by WuXi Apptec on behalf of Acurx Pharmaceuticals, Inc., using E. faecium ATCC 700221 as parental strain.
Agar MICs for the wild-type strain were determined on Blood agar (Huankai). Compounds and linezolid were dissolved in 100% DMSO and vancomycin in ultrapure water. Strains were inoculated onto agar plates, incubated at 37 °C for 20-24 h after which colonies were suspended in sterile 0.9% saline at different bacterial concentrations. 5 μL of bacterial suspensions was individually spotted on agar plates supplemented with compounds at different concentrations, resulting in final concentrations of 10^–1, 10^–2, 10^–3, 10^–4, 10^–5, 10^–6, and 10^–7 per spot. After incubation for 20-24 h, bacterial growth was assessed by visual inspection.
For frequency of resistance (FOR) studies, colonies from the agar plate were suspended into sterile 0.9% saline to get 10^8-10^9 CFU bacterial cells per mL. […] The suspensions were also serially diluted with 0.9% saline and spotted onto agar to determine the actual inoculum. All agar plates were incubated at 37 °C for 48 h. FOR was defined as colony number on each compound-containing plate per CFU number of actual inoculum. Resistant colonies were subcultured on the corresponding compound plates to confirm that colonies were resistant and stable.
Confirmed resistant colonies were used for cross-resistance studies, as described above.
Paired-end short read sequencing data from selected mutants (generated by BGISEQ) as well as the corresponding wild-type parental strain was analysed against the reference genomes for E. faecium strain ATCC 700221 (https://genomes.atcc.org/genomes/f9d13a716ccb4f78) using Geneious R10.2.6 (Biomatters Ltd). Variants were called using the Find Variants/SNPs function with a minimum coverage of 10 and a minimum frequency of 0.8. […] This identified the following mutations in the polC gene: D1103Y in strain Efa4; F1276L in strains Efa030, Efa038, and Efa039; F1276I in strains Efa1 and Efa037; F1276S in strain Efa3; A1281T in strains Efa036, Efa040 and Efa041. Strains Efa036, Efa039, and Efa040 each had only one polymorphism identified.

[8] = ATCC29212, E. faecalis ATCC 29212, Table 1, single replicate, read-out: Measured MIC
[9] = E. faecium VRE ATCC 700221, Table 1, single replicate
[10] = ATCC25922, E. coli ATCC 25922, Table 1, single replicate, read-out: Measured MIC
[11] = S. aureus ATCC 29213, Table 1, single replicate
[12] = S. aureus MRSA NRS 384, Table 1, independent experiment
[13] = S. pneumoniae PRSP ATCC 49619, Table 1, single replicate
[14] = read-out: Measured MIC, polC A1281T, strain Efa036, selected on 2 mg/L ACX-641
[15] = read-out: Measured MIC, polC A1281T, strain Efa040, selected on 4 mg/L ACX-671
[16] = read-out: Measured MIC, polC F1276I, strain Efa037, selected on 4 mg/L ACX-641
[17] = read-out: Measured MIC, polC F1276L, strain Efa030, selected on 16 mg/L ACX-728
[18] = read-out: Measured MIC, polC F1276S, strain Efa3, selected on 16 mg/L ACX-728

Row | Compound | MIC [1, 8] | MIC [2, 9] | Measured MIC [2] | increased potency compared to IBZ ([2]; against Gram-positive bacteria, including MRSA and VRE (Table 1)) | MIC [3, 10] | MIC [4, 11] | MIC [5, 12] | MIC [6, 13] | raise of MIC by A1281T [7] | MIC [7, 14] | MIC [7, 15] | MIC [7, 16] | MIC [7, 17] | MIC [7, 18] | MIC ([1]; ATCC29212, read-out: Measured MIC) | MIC [2] | MIC ([3]; ATCC25922, read-out: Measured MIC) | MIC [4] | MIC [5] | MIC [6]
1 | O=c1[nH]c(NCc2ccc3c(c2)OC(F)(F)O3)nc2c(F)nn(CCO)c12 [ACX-801, 5-(((2,2-difluorobenzo[d][1,3]dioxol-5-yl)methyl)amino)-3-fluoro-1-(2-hydroxyethyl)-1,6-dihydro-7H-pyrazolo[4,3-d]pyrimidin-7-one] | 2 µg/mL (≈ 5.22 µM) | 1 µg/mL (≈ 2.61 µM) | 1 µg/mL | 2- to 4 fold | > 64 µg/mL | 2 µg/mL (≈ 5.22 µM) | 2 µg/mL (≈ 5.22 µM) | 4 µg/mL (≈ 10.4 µM) | up to 32 fold | 16 µg/mL | 32 µg/mL | > 64 µg/mL | 64 µg/mL | 32 µg/mL |  |  |  |  |  | 
2 | O=c1[nH]c(NCc2ccc(Cl)c(Cl)c2)nc2ncn(CCN3CCOCC3)c12 [IBZ, N^2-(3,4-dichlorobenzyl)-7-(2-[1-morpholinyl]ethyl)guanine] | 8 µg/mL (≈ 18.9 µM) | 2 µg/mL (≈ 4.72 µM) | 2 µg/mL |  | > 64 µg/mL | 8 µg/mL (≈ 18.9 µM) | 8 µg/mL (≈ 18.9 µM) | 2 µg/mL (≈ 4.72 µM) | up to eightfold | 16 µg/mL | 8 µg/mL | > 64 µg/mL | > 64 µg/mL | 16 µg/mL |  |  |  |  |  | 
3 | CC(=O)NC[C@H]1CN(c2ccc(N3CCOCC3)c(F)c2)C(=O)O1 [LZD, linezolid] |  |  | 4 µg/mL |  |  |  |  |  |  | 4 µg/mL | 4 µg/mL | 4 µg/mL | 4 µg/mL | 4 µg/mL | 2 µg/mL (≈ 5.93 µM) | 4 µg/mL (≈ 11.9 µM) | > 64 µg/mL | 4 µg/mL (≈ 11.9 µM) | 2 µg/mL (≈ 5.93 µM) | 1 µg/mL (≈ 2.96 µM)
